Reference: patent US20080287544A1, “Method for Screening Substance by Measuring PPAR DELTA Activating Effect and Agent” (Teijin Limited, priority 2001, published 2008)

What was measured:
UCP1 = UCP1 expression-enhancing effect in skeletal muscle cells or adipocytes; type: cell-based
human white adipocytes = assay: Free fatty acid β-oxidation in human white adipocytes ([9,10(n)-3H]palmitic acid, 3H2O release); type: cell-based; details: 10 μM, 48 hr, vs DMSO control
Procedure: After human fully differentiated white adipocytes had been prepared in the same manner as in Example 1, the supernatant was removed, and 500 μl of a medium which had been prepared by adding adequate amounts of oleic acid and palmitic acid to an adipocyte medium so that their concentrations were 0.67 mM and 0.33 mM, respectively, was added. Various kinds of test compounds were added to the medium in such a manner that their final concentrations were 10 μM, and subsequently, [9,10(n)-3H]palmitic acid (manufactured by Amersham Pharmacia, final concentration of 1 μCi/ml) was added to each well, and the cells were cultured at 37° C. for 48 hr. The test compounds were YM-16638 of a PPAR δ ligand, WY14643 of a PPAR α ligand, L755,507 of a β3 adrenergic receptor agonist and Rosiglitazone of a PPAR γ ligand. A control was prepared by adding DMSO, which was the solvent for the test compounds, in such a manner that the final concentration was 0.5%, and it was cultured in the same manner as the test compounds. In order to prevent the evaporation of ^3H2O produced by β-oxidation of the [9,10(n)-^3H]palmitic acid by the cells during culture, the culture plates were sealed with mini-culture filters (MS-30055) manufactured by Sumitomo Bakelite Co. Ltd.
After 48-hour culture, 200 μl of the supernatant of the medium was transferred to a 1.5-ml Eppendorf tube, 50 μl of 50% trichloroacetic acid was added, the tube was held on ice for 30 min to produce precipitates, and the mixture was centrifuged for 10 min at 15,000 rpm. Subsequently, in a 20-ml glass vial into which 500 μl of distilled water had been placed in advance, a cap-free 1.5-ml Eppendorf tube was placed, the total amount of the supernatant obtained above was placed into this Eppendorf tube, and the vial was tightly sealed with a polypropylene packing-attached lid. […] Into the ^3H2O-containing distilled water remaining in the vial, 5 ml of a liquid scintillation cocktail (Ultima Gold, manufactured by Packard) was added, and radioactivity was measured after sufficient mixing.

UCP2 = details: J. Biol. Chem. 276, 10853-10860 (2001); cited from earlier work

SMILES | UCP1 expression-enhancing effect (UCP1) | enhancement of β-oxidation in the cells (human white adipocytes) | expression of UCP2 (UCP2)
CC#CCC(C)[C@H](O)/C=C/[C@@H]1[C@H]2C/C(=C/CCCC(=O)O)C[C@H]2C[C@H]1O (stereo partly drawn) [Iloprost, 5-{(E)-(1S,5S,6R,7R)-7-hydroxy-6-[(E)-(3S,4RS)-3-hydroxy-4-methyl-5-octen-6-inyl]-bicyclo[3.3.0]-octan-3-ylidene} pentenoic acid] | had a UCP1 expression-enhancing effect | – | –
CCCCCCNC(=O)Nc1ccc(S(=O)(=O)Nc2ccc(CCNC[C@H](O)COc3ccc(O)cc3)cc2)cc1 [L755,507] | – | no enhancement | –
CCCc1c(OCCCOc2ccc(OCC(=O)O)cc2)ccc(C(C)=O)c1O [L-165041, 4-(3-(2-propyl-3-hydroxy-4-acetyl-phenoxy)propyloxy)-phenoxyacetic acid] | – | – | increase the expression of UCP2
CN(CCOc1ccc(CC2SC(=O)NC2=O)cc1)c1ccccn1 (stereo not drawn) [Rosiglitazone] | – | 15% | –
Cc1cccc(Nc2cc(Cl)nc(SCC(=O)O)n2)c1C [WY14643] | hardly exhibit a UCP1 expression enhancing effect | no enhancement | –
CCCCC/C=C\C/C=C\C/C=C\C/C=C\CCCC(=O)O [arachidonic acid] | – | – | increase the expression of UCP2
CCCCC[C@H](O)/C=C/[C@@H]1[C@H]2C/C(=C/CCCC(=O)O)C[C@H]2C[C@H]1O [carbaprostacyclin, 6,9 α-methylene-11 α, 15S-dihydroxy-prosta-5E, 13E-dien-1-oic acid] | had a UCP1 expression-enhancing effect | – | increase the expression of UCP2
